From patent US8759535B2, “Substituted fused imidazole derivatives, pharmaceutical compositions, and methods of use thereof” (High Point Pharmaceuticals, LLC, priority 2010, dated 2014)
Structures can show the parent of a compound that is named as a salt.

System: HMOX1
Test: HMOX1 Protein Assay (immunostaining of HO-1 in NHLF cells, GE InCell 1000)
Type: cell-based
Details: Homo sapiens, fold change above DMSO treated cells, 3 μM compound (asterisk), 16 h
Procedure, shortened: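 Fold induction of HO-1 over vehicle, normally at 5 μM compound (asterisk marks 3 μM), in 0.8% DMSO medium. Normal human lung fibroblasts were treated 16 h, then paraformaldehyde-fixed, anti-HO-1/Alexa 488 stained with Hoechst, and read by high-content imaging.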

| Structure (SMILES) | fold induction at 3 µM |
| --- | --- |
| Cn1c(Nc2nc3ccc(Cl)cc3s2)nc2cc(C(=O)NCCC(=O)N3CCOCC3)ccc21 [Example 373, 2-(6-Chloro-benzothiazol-2-ylamino)-1-methyl-1H-benzoimidazole-5-carboxylic acid (3-morpholin-4-yl-3-oxo-propyl)-amide] | 32 |
| C[C@@H](O)CN1CC[C@@H](NC(=O)c2ccc3c(c2)nc(Nc2nc4ccc(Cl)cc4s2)n3C)C1 [Example 296, 2-(6-Chloro-benzothiazol-2-ylamino)-1-methyl-1H-benzoimidazole-5-carboxylic acid [(R)-1-((R)-2-hydroxy-propyl)-pyrrolidin-3-yl]-amide] | 34.6 |
| Cn1c(Nc2nc3ccc(Cl)cc3s2)nc2cc(C(=O)NCCCCN)ccc21 [Example 347, 2-(6-Chloro-benzothiazol-2-ylamino)-1-methyl-1H-benzoimidazole-5-carboxylic acid (4-amino-butyl)-amide hydrochloride] | 15.3 |
| C[C@H](O)CNC(=O)c1ccc2c(c1)nc(Nc1nc3ccc(Cl)cc3s1)n2C [Example 204, 2-(6-Chloro-benzothiazol-2-ylamino)-1-methyl-1H-benzoimidazole-5-carboxylic acid ((S)-2-hydroxy-propyl)-amide] | 19.3 |
| Cn1c(Nc2nc3ccc(OC(F)(F)F)cc3s2)nc2cc(C(=O)NCC(=O)N3CCC(C#N)CC3)ccc21 [Example 450, 1-Methyl-2-(6-trifluoromethoxy-benzothiazol-2-ylamino)-1H-benzoimidazole-5-carboxylic acid [2-(4-cyano-piperidin-1-yl)-2-oxo-ethyl]-amide] | 51 |
| Cn1c(Nc2nc3ccc(Cl)cc3s2)nc2cc(C(=O)NCC(=O)N3CC[C@@H](O)C3)ccc21 [Example 400, 2-(6-Chloro-benzothiazol-2-ylamino)-1-methyl-1H-benzoimidazole-5-carboxylic acid [2-((R)-3-hydroxy-pyrrolidin-1-yl)-2-oxo-ethyl]-amide] | 15 |
| Cn1c(Nc2nc3ccc(Cl)cc3s2)nc2cc(C(=O)NCC(=O)N3CCCC3)ccc21 [Example 397, 2-(6-Chloro-benzothiazol-2-ylamino)-1-methyl-1H-benzoimidazole-5-carboxylic acid (2-oxo-2-pyrrolidin-1-yl-ethyl)-amide] | 25 |
| Cn1c(Nc2nc3ccc(Cl)cc3s2)nc2cc(C(=O)NC[C@H]3CC[C@H](O)CC3)ccc21 [Example 233, 2-(6-Chloro-benzothiazol-2-ylamino)-1-methyl-1H-benzoimidazole-5-carboxylic acid (trans-4-hydroxy-cyclohexylmethyl)-amide] | 28 |
| Cn1c(Nc2nc3ccc(Cl)cc3s2)nc2cc(C(=O)NCCCN)ccc21 [Example 345, 2-(6-Chloro-benzothiazol-2-ylamino)-1-methyl-1H-benzoimidazole-5-carboxylic acid (3-amino-propyl)-amide hydrochloride] | 26.4 |
| Cn1c(Nc2nc3ccc(C(F)(F)F)cc3s2)nc2cc(C(=O)NCC(=O)N3CCC(O)CC3)ccc21 [Example 437, 1-Methyl-2-(6-trifluoromethyl-benzothiazol-2-ylamino)-1H-benzoimidazole-5-carboxylic acid [2-(4-hydroxy-piperidin-1-yl)-2-oxo-ethyl]-amide] | 47.1 |
| CO[C@H]1CCN(C(=O)CNC(=O)c2ccc3c(c2)nc(Nc2nc4ccc(C(F)(F)F)cc4s2)n3C)C1 [Example 410, 1-Methyl-2-(6-trifluoromethyl-benzothiazol-2-ylamino)-1H-benzoimidazole-5-carboxylic acid [2-((S)-3-methoxy-pyrrolidin-1-yl)-2-oxo-ethyl]-amide] | 24.7 |
| C[C@@H](O)CNC(=O)c1ccc2c(c1)nc(Nc1nc3ccc(Cl)cc3s1)n2C [Example 203, 2-(6-Chloro-benzothiazol-2-ylamino)-1-methyl-1H-benzoimidazole-5-carboxylic acid ((R)-2-hydroxy-propyl)-amide] | 18.7 |
| C[C@H](NC(=O)c1ccc2c(c1)nc(Nc1nc3ccc(C(F)(F)F)cc3s1)n2C)C(=O)N(C)C [Example 463, 1-Methyl-2-(6-trifluoromethyl-benzothiazol-2-ylamino)-1H-benzoimidazole-5-carboxylic acid ((S)-1-dimethylcarbamoyl-ethyl)-amide] | 26.7 |

Same assay, conditions: Homo sapiens, fold change above DMSO treated cells, 5 μM compound, 16 h

| Structure (SMILES) | fold induction at 5 µM |
| --- | --- |
| CNC(=O)CNC(=O)c1ccc2c(c1)nc(Nc1nc3ccc(OC(F)(F)F)cc3s1)n2C [Example 139, 1-Methyl-2-(6-trifluoromethoxy-benzothiazol-2-ylamino)-1H-benzimidazole-5-carboxylic acid methylcarbamoylmethyl-amide] | 18.8 |
| CNC(=O)c1ccc2c(c1)nc(Nc1nc3ccc(OC(F)(F)F)cc3s1)n2CCOC [Example 167, 1-(2-Methoxy-ethyl)-2-(6-trifluoromethoxy-benzothiazol-2-ylamino)-1H-benzoimidazole-5-carboxylic acid methylamide] | 24.2 |
| COCCn1c(Nc2nc3ccc(OC(F)(F)F)cc3s2)nc2cc(C(=O)NCCOCCO)ccc21 [Example 241, 1-(2-Methoxy-ethyl)-2-(6-trifluoromethoxy-benzothiazol-2-ylamino)-1H-benzoimidazole-5-carboxylic acid [2-(2-hydroxy-ethoxy)-ethyl]-amide] | 23.7 |
| Cn1c(Nc2nc3ccc(OC(F)(F)F)cc3s2)nc2cc(C(=O)NCC(=O)N3CCNCC3)ccc21 [Example 152, 1-Methyl-2-(6-trifluoromethoxy-benzothiazol-2-ylamino)-1H-benzimidazole-5-carboxylic acid (2-oxo-2-piperazin-1-yl-ethyl)-amide hydrochloride] | 15 |
| COCCn1c(Nc2nc3ccc(Cl)cc3s2)nc2cc(C(=O)NCCN3CCNC(=O)C3)ccc21 [Example 332, 2-(6-Chloro-benzothiazol-2-ylamino)-1-(2-methoxy-ethyl)-1H-benzoimidazole-5-carboxylic acid [2-(3-oxo-piperazin-1-yl)-ethyl]-amide] | 55.9 |
| C[C@H](NC(=O)c1ccc2c(c1)nc(Nc1nc3ccc(OC(F)(F)F)cc3s1)n2C)C(=O)O [Example 146, (S)-2-{[1-Methyl-2-(6-trifluoromethoxy-benzothiazol-2-ylamino)-1H-benzoimidazole-5-carbonyl]-amino}-propionic acid] | 3.7 |
| CNCC1CCN(C(=O)CNC(=O)c2ccc3c(c2)nc(Nc2nc4ccc(Cl)cc4s2)n3C)CC1 [Example 457, 2-(6-Chloro-benzothiazol-2-ylamino)-1-methyl-1H-benzoimidazole-5-carboxylic acid [2-(4-methylaminomethyl-piperidin-1-yl)-2-oxo-ethyl]-amide hydrochloride] | 39.9 |
| Cn1c(Nc2nc3ccc(OC(F)(F)F)cc3s2)nc2cc(C(=O)NCCO)ccc21 [Example 10, 1-Methyl-2-(6-trifluoromethoxy-benzothiazol-2-ylamino)-1H-benzoimidazole-5-carboxylic acid (2-hydroxy-ethyl)-amide] | 19.9 |
| Cn1c(Nc2nc3ccc(Cl)cc3s2)nc2cc(C(=O)N[C@@H]3CCN(CCO)C3)ccc21 [Example 292, 2-(6-Chloro-benzothiazol-2-ylamino)-1-methyl-1H-benzoimidazole-5-carboxylic acid [(R)-1-(2-hydroxy-ethyl)-pyrrolidin-3-yl]-amide] | 39 |
| CC(C)Cn1c(Nc2nc3ccc(OC(F)(F)F)cc3s2)nc2cc(C(=O)O)ccc21 [Example 163, 1-Isobutyl-2-(6-trifluoromethoxy-benzothiazol-2-ylamino)-1H-benzoimidazole-5-carboxylic acid] | 26.3 |
| COCCn1c(Nc2nc3ccc(OC(F)(F)F)cc3s2)nc2cc(C(=O)NCC(=O)N(C)C)ccc21 [Example 188, 1-(2-Methoxy-ethyl)-2-(6-trifluoromethoxy-benzothiazol-2-ylamino)-1H-benzoimidazole-5-carboxylic acid dimethylcarbamoylmethyl-amide] | 18.3 |
| COCCNC(=O)c1ccc2c(c1)nc(Nc1nc3cc(F)c(F)cc3s1)n2C [Example 37, 2-(5,6-Difluoro-benzothiazol-2-ylamino)-1-methyl-1H-benzoimidazole-5-carboxylic acid (2-methoxy-ethyl)-amide] | 16.4 |
| CC(C)n1c(Nc2nc3ccc(OC(F)(F)F)cc3s2)nc2cc(C(=O)O)ccc21 [Example 159, 1-Isopropyl-2-(6-trifluoromethoxy-benzothiazol-2-ylamino)-1H-benzoimidazole-5-carboxylic acid] | 26.7 |
| Cn1c(Nc2nc3ccc(Cl)cc3s2)nc2cc(C(=O)NCC(=O)N3CCS(=O)(=O)CC3)ccc21 [Example 424, 2-(6-Chloro-benzothiazol-2-ylamino)-1-methyl-1H-benzoimidazole-5-carboxylic acid [2-(1,1-dioxo-thiomorpholin-4-yl)-2-oxo-ethyl]-amide] | 24.9 |
| Cn1c(Nc2nc3ccc(OC(F)(F)F)cc3s2)nc2cc(C(=O)NCCN3CCOCC3)cnc21 [Example 77, 3-Methyl-2-(6-trifluoromethoxy-benzothiazol-2-ylamino)-3H-imidazo[4,5-b]pyridine-6-carboxylic acid (2-morpholin-4-yl-ethyl)-amide] | 31.4 |
| Cn1c(Nc2nc3ccc(OC(F)(F)F)cc3s2)nc2cc(C(=O)NCCCn3cccn3)ccc21 [Example 11, 1-Methyl-2-(6-trifluoromethoxy-benzothiazol-2-ylamino)-1H-benzoimidazole-5-carboxylic acid (3-pyrazol-1-yl-propyl)-amide] | 25 |
| COc1cc2c(cc1C(=O)NCC(C)O)nc(Nc1nc3ccc(OC(F)(F)F)cc3s1)n2C (stereo not drawn) [Example 68, 6-Methoxy-1-methyl-2-(6-trifluoromethoxy-benzothiazol-2-ylamino)-1H-benzoimidazole-5-carboxylic acid (2-hydroxy-propyl)-amide] | 21.1 |
